Counter-ions that a name gives are not always drawn.
Legend:
[1] = test system: NK1 and NK2 receptors; test: Modulation of respiratory effects produced by capsaicin aerosol in conscious guinea pigs; type: in vivo, guinea pig
Procedure: (§1) In vivo experiments were performed using male Duncan Hartley guinea pigs (250-350g). Changes in conscious breathing patterns were monitored in four animals simultaneously using modified whole body plethysmography consisting of four small plexiglass boxes each connected to a reference box via Validyne DP 45-16 differential pressure transducers. The 4 boxes were equipped with an air supply line (also used for aerosol delivery) and an exhaust air line. Supply and exhaust lines were of the same length and narrow bore and arose from a common supply chamber and vented to a common exhaust chamber. This system was used to ensure that fluctuations in supply air and atmospheric pressure would remain in phase and be eliminated from the net signal by the differential pressure transducers. The analog pressure signals were digitalized via a Data Translation DT2821 A to D board. Data were collected at a rate of 100 samples/second/animal. Each cycle of pressure change was analyzed using the following parameters: rising and falling slope determined between minimum and maximum pressures, the ratio of rising over falling slope, and the magnitude of the change between initial trough pressure and peak cycle pressure. Using these values (and observing the animals) the pressure cycles were characterized into normal breaths, forced exhalations (apparent by abdominal heaving), significant respiratory events (SREs; usually coughs, less often sneezes or gasps which were characterized by transient, extremely large pressure increases which were distinguishable from noise) and movement/noise with a PCAT 286 running a System V UNIX operating system. Dyspnea was defined as a significant, sustained increase in plethysmograph pressure which was associated with an observable shift to labored breathing in the animal.
(§2) During the course of a typical experiment in which airway responsiveness to various bronchoconstricting agents was examined, aerosols were delivered for 19 min (0.33 ml/min) using a DeVilbiss Ultraneb 99 ultrasonic nebulizer and animals monitored during this time. Prior to nebulization, 1 min of resting breathing was collected to establish a baseline pressure. […] The vehicle for nebulization of all bronchoconstrictive agents was phosphate buffered saline (pH 7.4) which elicited no respiratory effects itself. Putative tachykinin antagonists were administered either (i.v.) 20 min prior to onset of aerosol exposure or orally 1 hour prior to onset (to guinea pigs after an overnight fast).
Capsaicin aerosol is known to promote release of the tachykinins SP and NKA from sensory nerves in the airways of guinea pigs which may then act upon NK1 and NK2 receptors, respectively to elicit respiratory effects.

[2] = target: T1, NK1 receptor (Homo sapiens, UniProt P25103); test: Antagonism of NK1 receptor mediated (SP-induced) phosphatidylinositol turnover in UC11 cells; type: cell-based; settings: for relative antagonism of NK1 and NK2 receptors (in words): PI turnover, UC11 (NK1) versus SKLKB82#3 (NK2) cells
T1 construct: antagonizes both NK1 (on UC11 cells); endogenous in cells; host or cells: UC11 cells
T1 sequence (P25103 whole entry): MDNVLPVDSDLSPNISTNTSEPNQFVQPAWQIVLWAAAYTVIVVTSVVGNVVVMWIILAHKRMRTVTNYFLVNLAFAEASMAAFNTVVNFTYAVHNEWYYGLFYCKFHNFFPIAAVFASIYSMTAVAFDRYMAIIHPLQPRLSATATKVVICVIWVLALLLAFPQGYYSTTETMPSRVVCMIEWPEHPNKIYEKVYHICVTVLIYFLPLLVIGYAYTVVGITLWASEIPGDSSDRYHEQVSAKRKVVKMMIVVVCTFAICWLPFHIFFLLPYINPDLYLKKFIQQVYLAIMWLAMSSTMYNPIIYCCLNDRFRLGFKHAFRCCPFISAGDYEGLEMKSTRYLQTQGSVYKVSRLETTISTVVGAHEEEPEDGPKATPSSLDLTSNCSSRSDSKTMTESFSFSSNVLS
Procedure: (§3) Tachykinin-mediated inositol phosphate accumulation was measured in UC11 or SKLKB82#3 cells in the presence and absence of NK1 or NK2 receptor antagonists, respectively. Tissues were incubated in Krebs-Henseleit buffer at 37° C. with 95% O2 -5% CO2 gassing. Tissues were then incubated with fresh buffer containing 100 μCi of myo-[2-3H(N)] inositol at 37° C. for 60 min with gentle gassing. After washing twice in 5 ml room temperature buffer containing 10 mM LiCl, tissues were incubated for 30 min at room temperature with a buffer change at 15 min. Buffer was removed and Krebs-Henseleit buffer (containing 40 μg/ml bacitracin, 4 μg/ml each of leupeptin and chymostatin, 0.1% bovine serum albumin and 10 mM each of thiorphan and LiCl) added. After 15 min, SP was added to UC11 cells or NKA to SKLKB82#3 cells at various concentrations to start the reaction. After incubation for 60 min at room temperature the reaction was terminated by addition of 930 μl chloroform: methanol (1:2 by volume) to each tube, followed by 310 μl chloroform and 310 μl doubly distilled water. Samples were vortexed, centrifuged, and 0.9 ml of the aqueous (top) phase removed and added to 2 ml ddH2 O. The mixture was vortexed and loaded onto a 50% Bio-Rad AG 1-X8 (formate form, 100-200 mesh) exchange column (Bio-Rad Laboratories, Hercules, Calif.). The columns were washed, in order, with: 1) 10 ml doubly distilled water, 2) 5 ml of 5 mM disodium tetraborate/60 mM sodium formate, and 3) 5 ml of 1M ammonium formate/0.1M formic acid. The third elution was collected and 1 ml counted in 7 ml scintillation fluid. A 50 μl aliquot of the organic (bottom) phase was removed, dried in a scintillation vial and counted in 7 ml scintillation fluid.
(§4) The ratio of DPM in the aqueous phase aliquot (total inositol phosphates) to the DPM in the 50 μl organic phase aliquot (total [^3 H]inositol incorporated) was calculated for each sample. Data are expressed as a percent of agonist-induced accumulation of [^3 H]-inositol phosphates over basal levels. The ratios in the presence of test compound and/or standards were compared to the ratios for control samples (i.e. no stimulating agonist). Dose-response graphs were constructed and the abilities of the test compounds to inhibit tachykinin-induced phosphatidyinositol turnover determined with the aid of a computer program. […] Data is expressed as percent stimulation of total inositol phosphate accumulation over basal levels and normalized to the maximum response produced by SP. […] Schild analysis is performed using dose response curves (such as those presented in FIGS. 1a and 1b) to obtain a value indicative of the strength of a competitive antagonist and is expressed as the pA2, which is the negative logarithm of the molar concentration of antagonist which reduces the effect of a dose of agonist to one-half of that expected at the dose of agonist.

[3] = test system: NK2 receptor; test: Antagonism of NKA-induced respiratory effects in conscious guinea pigs; type: in vivo, guinea pig; settings: for dyspnea incidence: i.v. 20 min prior to NKA aerosol (0.05%)
Procedure: as §1, §2

[4] = target: T2, NK1 receptor (Cavia porcellus, UniProt P30547); test: Antagonism of SP-induced plasma protein extravasation in guinea pig trachea; type: in vivo; settings: guinea pig, iv; i.v. 2 min prior to SP; mean (95% confidence limits); at least 3 doses, at least 4 animals per dose; read-out: ED50 for inhibition of SP-induced plasma protein extravasation
T2 construct: evaluated in guinea pig lungs; tissue Keystone Biologicals, Cleveland, OH; host or cells: guinea pig lung
T2 sequence (P30547 whole entry): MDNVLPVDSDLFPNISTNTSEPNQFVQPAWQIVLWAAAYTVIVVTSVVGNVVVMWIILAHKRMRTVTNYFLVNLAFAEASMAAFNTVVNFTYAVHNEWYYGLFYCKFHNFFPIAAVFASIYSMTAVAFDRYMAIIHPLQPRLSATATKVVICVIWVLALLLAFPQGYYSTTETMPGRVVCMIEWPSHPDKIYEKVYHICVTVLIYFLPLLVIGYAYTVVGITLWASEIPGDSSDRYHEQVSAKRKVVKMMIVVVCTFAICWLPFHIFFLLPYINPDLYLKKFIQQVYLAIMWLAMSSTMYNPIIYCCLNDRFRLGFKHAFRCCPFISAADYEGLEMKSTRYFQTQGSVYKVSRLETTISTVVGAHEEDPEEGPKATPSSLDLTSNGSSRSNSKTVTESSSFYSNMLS
Procedure: SP-induced protein leakage through postcapillary venules was assessed by measuring Evans Blue dye accumulation in guinea pig trachea. Animals were anesthetized with pentobarbital then injected with Evans Blue dye (20 mg/kg, i.v., prepared in 0.9% NaCl solution). One minute after dye administration, the antagonist was administered (i.v.) followed by SP (0.3 nmole/kg, i.v.) and, after 5 min, excess dye removed from the circulation by transcardiac perfusion with 50 ml 0.9% NaCl solution. The trachea and primary bronchi were removed, blotted dry and weighed. Dye quantitation was performed spectrophotometrically ([…]) after extracting tissues in formamide for 24 hr at 50° C.. Values were subtracted from background (dye only, no agonist). ED50 (dose of compound which inhibits SP-induced plasma protein extravasation by 50%) was calculated from linear regression analysis.

[5] = target: T3, NK2 receptor (Bos taurus, UniProt P05363); test: Antagonism of NK2 receptor mediated (NKA-induced) phosphatidylinositol turnover in SKLKB82#3 cells; type: cell-based; settings: SKLKB82#3 cells, NKA; Schild slope, mean (95% confidence limits)
T3 construct: expressed in transfected cells; host or cells: SKLKB82#3 cells
T3 sequence (P05363 1-384): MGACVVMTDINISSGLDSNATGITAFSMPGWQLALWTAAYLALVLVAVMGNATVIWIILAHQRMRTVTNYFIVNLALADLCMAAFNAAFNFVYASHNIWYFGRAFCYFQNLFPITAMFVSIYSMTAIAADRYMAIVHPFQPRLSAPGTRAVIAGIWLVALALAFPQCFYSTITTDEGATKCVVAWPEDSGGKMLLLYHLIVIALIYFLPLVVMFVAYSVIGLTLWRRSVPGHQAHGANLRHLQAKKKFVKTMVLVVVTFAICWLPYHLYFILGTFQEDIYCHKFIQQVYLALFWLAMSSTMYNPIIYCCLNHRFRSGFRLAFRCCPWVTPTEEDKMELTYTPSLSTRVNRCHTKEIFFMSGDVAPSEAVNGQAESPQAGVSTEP
Procedure: as §3
as §4, with “The ratios in the presence of test compound and/or standards were compared to the ratios for control samples (i.e. no stimulating agonist).” left out

Row | Structure (SMILES) | effect on capsaicin-induced respiratory effects (in words) ([1]; oral) | relative antagonism of NK1 and NK2 receptors (in words) [2] | dyspnea incidence ([3]; 5 mg/kg) [%] | dyspnea incidence ([3]; 10 mg/kg) [%] | effect on NKA-induced respiratory effects (in words) ([3]; NKA aerosol, dose dependent) | ED50 [4] [mg/kg] | NK-2 receptor slope [5] | NK-1 receptor slope ([2]; UC11 cells, SP, Schild slope, mean (95% confidence limits)) | dyspnea incidence ([1]; 10 mg/kg, i.v. 20 min prior to capsaicin aerosol (0.001%)) [%] | dyspnea incidence ([1]; 25 mg/kg, oral gavage 1 hr prior to capsaicin aerosol (0.001%)) [%] | dyspnea incidence ([1]; 50 mg/kg, oral gavage 1 hr prior to capsaicin aerosol (0.001%)) [%] | dyspnea incidence ([1]; 100 mg/kg, oral gavage 1 hr prior to capsaicin aerosol (0.001%)) [%] | effect on capsaicin-induced respiratory effects (in words) ([1]; intravenous)
1 | COc1cccc(OC)c1C(=O)N1CCC(CCN2CCC(C(N)=O)(c3ccccc3)CC2)(c2ccc(Cl)c(Cl)c2)C1 (stereo not drawn) [Example 5, 1-[2-[3-(3,4-dichloro-phenyl)-1-(2,6-dimethoxy-benzoyl)-pyrrolidin-3-yl]-ethyl]-4-phenyl-piperidine-4-carboxylic acid amide] | antagonize the effects of capsaicin aerosol when administered orally | – | – | – | – | – | – | – | – | – | – | – | –
2 | COc1cccc(OC)c1C(=O)N1CCC(CCN2CCC(C(N)=O)(c3ccccc3)CC2)(c2ccc(Cl)c(Cl)c2)C1 (stereo not drawn) [Example 5A, 1-[2-[3-(3,4-dichloro-phenyl)-1-[2,6-dimethoxy-benzoyl)-pyrrolidin-3-yl]-ethyl]-4-phenylpiperidine-4-carboxylic acid amide hydrochloride] | – | antagonized both NK1 and NK2 receptors by nearly equivalent amounts | 60 | 54 | reduced the effects of NKA aerosol | – | – | – | – | – | – | – | –
3 | COc1cc(C(=O)N2CCC(CCN3CCC(C(N)=O)(c4ccccc4)CC3)(c3ccc(Cl)c(Cl)c3)C2)cc(OC)c1OC (racemic) [Example 3A, 1-[2-[3-(3,4-dichloro-phenyl)-1-(3,4,5-trimethoxy-benzoyl)-pyrrolidin-3-yl]-ethyl]-4-phenyl-piperidine-4-carboxylic acid amide hydrochloride] | antagonize the effects of capsaicin aerosol when administered orally | antagonized both NK1 and NK2 receptors by nearly equivalent amounts | – | – | – | 0.17 | 0.73 | 0.90 | 89 | 80 | 70 | 50 | attenuate capsaicin-induced respiratory effects

From patent US5635510A, “Substituted pyrrolidin-3-yl-alkyl-piperidines” (Merrell Pharmaceuticals Inc., priority 1994, dated 1997)
